Reference: patent US8574323B2, “Marker compounds for liquid hydrocarbons and other fuels and oils” (Angus Chemical Company, priority 2010, dated 2013)

Key:
[1] = Laundering stability and extractability of the marker in xylene solution (GC against un-laundered reference); format: physicochemical; conditions: 8 hours; for marker: relative to control = 100
Experimental: (§1) The stability and extractability of the markers was performed using xylene solutions containing between 100-1000 ppm makers and an equivalent amount of squalene internal reference standard using the following protocols:
Mix 95 parts marked xylenes with 5 parts laundering agent in a 100 mL vial. Mix gently for 8 hours using a magnetic stir bar. Stop mixing and remove a xylene solution aliquot. Analyze by GC and compare marker response to reference (un-laundered) sample.
(§2) Laundering Agents: • 1) 5% sulfuric acid • 2) 98% sulfuric acid • 3) 5% NaOH solution • 4) 50% NaOH solution • 5) Activated charcoal (use 98 parts xylenes solution to 2 parts charcoal) • 6) 5% bleach To test for metal adsorptivity, 100 mL marked xylene tests solution is treated with 5 grams metal shavings at room temperature for 8 hours. GC analysis is again used to determine any loss of marker to the metal surface.

[2] = Metal adsorptivity of the marker from xylene solution (GC); format: physicochemical; conditions: Metals: 5 grams metal shavings per 100 mL, room temperature, 8 hours
Experimental: as §1, §2

% change ([1]; 2% charcoal (activated)): −6%
marker ([1]; 2% charcoal (activated)): 94
% change ([1]; 5% H2SO4 laundering): −1.75%
marker ([1]; 5% H2SO4 laundering): 98.25
% change ([1]; 5% NaOH laundering): −2.79%
marker ([1]; 5% NaOH laundering): 102.79
% change ([1]; 5% bleach laundering): −65%
marker ([1]; 5% bleach laundering): 35
% change ([1]; 50% NaOH laundering): −1.74%
marker ([1]; 50% NaOH laundering): 98.26
% change ([1]; 98% H2SO4 laundering): 0.47%
marker ([1]; 98% H2SO4 laundering): 100.47
% change [2]: +4%
marker ([2]; relative to control = 100): 104
Compound: Cc1ccc(C)c(Cc2ccc(-c3ccc(Cc4cc(C)ccc4C)cc3)cc2)c1 [4,4′-bis(2,5-dimethylbenzyl)-1,1′-biphenyl]
